This note sets out measurements from ChEMBL document CHEMBL1144258, “Topochemical model for prediction of anti-HIV activity of HEPT analogs” (Bioorg Med Chem Lett, 2005).

As a reminder, the IC50 is the concentration at which inhibition is half-maximal.

Each structure is given as a SMILES string. Bounds are passed on as bounds.

One assay deals with Human immunodeficiency virus 1. Kind of assay: Inhibitory activity against human immunodeficiency virus type 1 (inactive>0.1). It counts as functional, organism-based.
Consider `Cc1c(SC2CCCCC2)n(COCSc2ccccc2)c(=O)[nH]c1=O`, for which the IC50 result is reported as “Inactive”. For `CCc1c(Sc2ccccc2)n(COCc2ccc([N+](=O)[O-])s2)c(=O)[nH]c1=O`, the IC50 result was “Inactive”.

Regarding `Cc1c(SC2CCCCC2)n(COCSc2ccncc2)c(=O)[nH]c1=O`, the IC50 result is on record as “Inactive”. On the same count and under the same terms, the result for `Cc1c(SC2CCCCC2)n(COCN)c(=O)[nH]c1=O` reads “Inactive”; that for `Cc1c(SC2CCCCC2)n(COCNC(=O)c2ccccc2)c(=O)[nH]c1=O`, “Inactive”; that for `Cc1c(Sc2ccccc2)n(COCc2ccccc2)c(=O)[nH]c1=O`, “Inactive”. Still for that read-out and setting: the result for `Cc1c(Sc2ccccc2)n(COCc2cc3ccccc3o2)c(=O)[nH]c1=O` reads “Inactive”.

For `Cc1c(SC2CCCCC2)n(COCN(c2ccccc2)c2ccccc2)c(=O)[nH]c1=O`, the IC50 entry is given as “Inactive”. On to `Cc1c(SC2CCCCC2)n(COCN(CC#N)CC#N)c(=O)[nH]c1=O`, for which the IC50 entry was “Inactive”. Still for that read-out and setting: then `Cc1c(SC2CCCCC2)n(COCBr)c(=O)[nH]c1=O`, with “Inactive”. On the same count and under the same terms, the result for `Cc1c(SC2CCCCC2)n(COCNC(=O)CNCP(=O)(O)O)c(=O)[nH]c1=O` reads “Inactive”; that for `Cc1c(Sc2ccccc2)n(COCc2cccs2)c(=O)[nH]c1=O`, “Inactive”; that for `Cc1c(SC2CCCCC2)n(COCI)c(=O)[nH]c1=O`, “Inactive”. Same read-out and setting: the result for `Cc1c(Sc2ccccc2)n(COCc2ccc([N+](=O)[O-])s2)c(=O)[nH]c1=O` reads “Inactive”. For `Cc1c(SC2CCCCN2)n(COCNc2ccccc2)c(=O)[nH]c1=O` (stereo not drawn), the IC50 result is given as “Inactive”. Still for that read-out and setting: then `Cc1c(SC2CCCCC2)n(COCNc2ccccc2)c(=O)[nH]c1=O`, with “Inactive”; and `Cc1c(SC2CCCCC2)n(COCNC(=O)CP(=O)(O)O)c(=O)[nH]c1=O`, with “Inactive”.

In the case of `Cc1c(SC2CCCCN2)n(COCSc2ccncc2)c(=O)[nH]c1=O` (stereo not drawn), the IC50 entry is “Inactive”. As to `Cc1c(SC2CCCCN2)n(COCSc2ccccc2)c(=O)[nH]c1=O` (stereo not drawn), the IC50 result is on record as “Inactive”. On the same count and under the same terms, then `Cc1c(SC2CCCCC2)n(COCNC(=O)CCCl)c(=O)[nH]c1=O`, with “Inactive”.

For the molecule `Cc1c(SC2CCCCC2)n(COCN(C(=O)c2ccccc2)C(=O)c2ccccc2)c(=O)[nH]c1=O`, the IC50 entry is recorded as “Inactive”. In the case of `Cc1c(Sc2ccccc2)n(COCc2cccnc2)c(=O)[nH]c1=O`, the IC50 entry was “Inactive”. The same measure, in the same setting: the result for `Cc1c(SC2CCCCC2)n(COCN2CCNCC2)c(=O)[nH]c1=O` reads “Inactive”. Same read-out and setting: then `Cc1c(Sc2ccccc2)n(COCc2ccco2)c(=O)[nH]c1=O`, with “Inactive”.

Consider `Cc1c(SC2CCCCC2)n(COCN2CCOCC2)c(=O)[nH]c1=O`, for which the IC50 result is on record as “Inactive”. On the same count and under the same terms, then `Cc1c(Sc2ccccc2)n(COCC2CCCCC2)c(=O)[nH]c1=O`, with “Inactive”.

The test system of another assay is Human immunodeficiency virus 1. Kind of assay: Inhibitory activity against human immunodeficiency virus type 1. It is filed as functional, organism-based.
`CCc1c(Sc2cc(C)cc(C)c2)n(COCc2ccco2)c(=O)[nH]c1=O` had an IC50 of under 100 nM. In turn, `CCc1c(Sc2cc(C)cc(C)c2)n(COCc2ccccc2)c(=O)[nH]c1=O` yielded an IC50 of under 100 nM. On the same count and under the same terms, then `CCc1c(Sc2ccccc2)n(COCc2cc3ccccc3o2)c(=O)[nH]c1=O`, with under 100 nM; and `CCc1c(Sc2ccccc2)n(COCc2ccccc2)c(=O)[nH]c1=O`, with under 100 nM; and `CCc1c(Sc2cc(C)cc(C)c2)n(COCc2cccs2)c(=O)[nH]c1=O`, with under 100 nM. In turn, `CCc1c(Sc2ccccc2)n(COCc2ccco2)c(=O)[nH]c1=O` had an IC50 of under 100 nM. `CCc1c(Sc2ccccc2)n(COCc2cccs2)c(=O)[nH]c1=O` displayed an IC50 of under 100 nM.
